Reference: US20240041042A1, “1-(PYRIDYL)-5-AZINYLPYRAZOLE DERIVATIVES, AND THEIR USE FOR CONTROL OF UNDESIRED PLANT GROWTH” (Bayer Aktiengesellschaft, priority 2020, published 2024)
Like-named read-outs stand apart in the source and are kept apart here.

How the values were obtained:
Assay type in all cases: in vivo
[1] = system: Amaranthus retroflexus (AMARE); assay: Post-emergence herbicidal action against AMARE
Procedure, shortened: (§1)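 Values are percent visual activity (0% like control, 100% plants dead) after about 3 weeks in the greenhouse. Treatment: post-emergence spray at one-leaf stage, 600 l/ha spray volume, 0.5% additive, doses 320 g/ha or lower.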

[2] = system: Alopecurus myosuroides (ALOMY); assay: Pre-emergence herbicidal action against ALOMY; settings: scored visually after about 3 weeks, 100% = plants have died
Procedure, shortened: (§2)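 Read-out is visual percent damage relative to untreated pots, with 100% meaning dead plants and 0% meaning no difference, assessed roughly three weeks after treatment. Compounds were applied pre-emergence to the covering soil at up to 320 g/ha.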

[3] = system: Matricaria inodora (MATIN); assay: Post-emergence herbicidal action against MATIN
Procedure, shortened: as §1

[4] = system: Amaranthus retroflexus (AMARE); assay: Pre-emergence herbicidal action against AMARE; settings: visual scoring after about 3 weeks vs untreated controls
Procedure, shortened: as §2

[5] = system: Alopecurus myosuroides (ALOMY); assay: Post-emergence herbicidal action against ALOMY; settings: visual rating about 3 weeks after treatment vs untreated controls (100% = plants have died, 0% = like control plants)
Procedure, shortened: as §1

[6] = system: Polygonum convolvulus (POLCO); assay: Pre-emergence herbicidal action against POLCO
Procedure, shortened: as §2

[7] = system: Pharbitis purpurea (PHBPU); assay: Pre-emergence herbicidal action against PHBPU; settings: dosage 320 g/ha
Procedure, shortened: as §2

[8] = system: Polygonum convolvulus (POLCO); assay: Post-emergence herbicidal action against POLCO
Procedure, shortened: as §1

[9] = system: Abutilon theophrasti (ABUTH); assay: Pre-emergence herbicidal action against ABUTH; settings: 100% = plants have died
Procedure, shortened: as §2

[10] = system: Matricaria inodora (MATIN); assay: Pre-emergence herbicidal action against MATIN
Procedure, shortened: as §2

Lolium rigidum (LOLRI) [11] = assay: Post-emergence herbicidal action against LOLRI
Procedure, shortened: as §1

Avena fatua (AVEFA) [12] = assay: Pre-emergence herbicidal action against AVEFA; settings: 320 g/ha, visual scoring after about 3 weeks vs untreated controls
Procedure, shortened: as §2

[13] = system: Verconica persica (VERPE); assay: Pre-emergence herbicidal action against VERPE
Procedure, shortened: as §2

[14] = system: Pharbitis purpurea (PHBPU); assay: Post-emergence herbicidal action against PHBPU; settings: dosage 80 g/ha
Procedure, shortened: as §1

Avena fatua (AVEFA) [15] = assay: Post-emergence herbicidal action against AVEFA; settings: visual rating about 3 weeks after treatment
Procedure, shortened: as §1

[16] = system: Verconica persica (VERPE); assay: Post-emergence herbicidal action against VERPE
Procedure, shortened: as §1

Viola tricolor (VIOTR) [17] = assay: Pre-emergence herbicidal action against VIOTR
Procedure, shortened: as §2

Lolium rigidum (LOLRI) [18] = assay: Pre-emergence herbicidal action against LOLRI
Procedure, shortened: as §2

Oryza sativa (ORYSA) = settings: crop plant compatibility
Procedure, shortened: (§3)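 Foliar application at the one-leaf stage: WP/EC formulation, 0.5% additive, 600 l/ha water. Greenhouse-grown in sandy loam. Endpoint is visual % injury relative to untreated controls at about 3 weeks.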

Zea mays (ZEAMX) = settings: 20 g/ha, ZEAMX, effect in comparison to untreated controls
Procedure, shortened: as §3

Setaria viridis (SETVI) [19] = assay: Post-emergence herbicidal action against SETVI
Procedure, shortened: as §1

[20] = system: Echinochloa crus-galli (ECHCG); assay: Pre-emergence herbicidal action against ECHCG
Procedure, shortened: as §2

[21] = system: Echinochloa crus-galli (ECHCG); assay: Post-emergence herbicidal action against ECHCG
Procedure, shortened: as §1

Setaria viridis (SETVI) [22] = assay: Pre-emergence herbicidal action against SETVI
Procedure, shortened: as §2

[23] = system: Abutilon theophrasti (ABUTH); assay: Post-emergence herbicidal action against ABUTH; settings: visual rating about 3 weeks after treatment vs untreated controls (100% = plants have died, 0% = like control plants)
Procedure, shortened: as §1

Viola tricolor (VIOTR) [24] = assay: Post-emergence herbicidal action against VIOTR
Procedure, shortened: as §1

[25] = Dosage column 320 g/ha (title prints 3200 g/ha), scored visually after about 3 weeks

SMILES	Pre-emergence action against ALOMY ([2]; 80 g/ha) [%]	Pre-emergence action against ALOMY ([2]; 320 g/ha) [%]	Pre-emergence action against AMARE in % ([4]; 80 g/ha) [%]	Pre-emergence action against AMARE in % ([4]; 320 g/ha) [%]	Post-emergence action against ALOMY in % ([5]; 80 g/ha) [%]	Pre-emergence action against POLCO in % ([6]; dosage 320 g/ha) [%]	Pre-emergence action against PHBPU in % [7] [%]	Pre-emergence action against ABUTH [9, 25] [%]	Pre-emergence action against MATIN in % ([10]; dosage 320 g/ha) [%]	Post-emergence action against LOLRI in % (Lolium rigidum (LOLRI) [11]; dosage 80 g/ha) [%]	Pre-emergence action against AVEFA in % (Avena fatua (AVEFA) [12]) [%]	Pre-emergence action against VERPE in % ([13]; dosage 320 g/ha) [%]	Pre-emergence action against VIOTR in % (Viola tricolor (VIOTR) [17]; 320 g/ha, Viola tricolor) [%]	Pre-emergence action against VIOTR in % (Viola tricolor (VIOTR) [17]; dosage 80 g/ha) [%]	Pre-emergence action against LOLRI in % (Lolium rigidum (LOLRI) [18]; dosage 80 g/ha) [%]	Pre-emergence action against LOLRI in % (Lolium rigidum (LOLRI) [18]; dosage 320 g/ha) [%]	Post-emergence action against SETVI in % (Setaria viridis (SETVI) [19]; dosage 80 g/ha) [%]	Pre-emergence action against ECHCG in % ([20]; dosage 320 g/ha) [%]	Post-emergence action against ECHCG in % ([21]; dosage 80 g/ha) [%]	Pre-emergence action against SETVI in % (Setaria viridis (SETVI) [22]; dosage 80 g/ha) [%]	also measured
COC(=O)[C@H](C)COC(=O)COc1nn(-c2ccccn2)c(-c2ccc(F)nc2)c1Br [Example I-76]	90	100	90	100	100	90	90	80	90	80	90	100	100	100	90	100	90	90	90	80	Post-emergence action against AMARE in % ([1]; 80 g/ha, visual rating about 3 weeks after treatment vs untreated controls (100% = plants have died, 0% = like control plants)): 80%; Post-emergence action against MATIN in % ([3]; dosage 80 g/ha): 80%; Pre-emergence action against POLCO in % ([6]; dosage 80 g/ha): 80%; Post-emergence action against POLCO in % ([8]; dosage 80 g/ha): 80%; Pre-emergence action against MATIN in % ([10]; dosage 80 g/ha): 90%; Pre-emergence action against VERPE in % ([13]; dosage 80 g/ha): 100%; Post-emergence action against PHBPU in % [14]: 90%; Post-emergence action against AVEFA in % (Avena fatua (AVEFA) [15]; 80 g/ha): 90%; Post-emergence action against VERPE in % ([16]; dosage 80 g/ha): 80%; Post-emergence action against ORYSA in % (Oryza sativa (ORYSA); 20 g/ha, effect vs untreated controls): 0%; Post-emergence action against ORYSA in % (Oryza sativa (ORYSA); 80 g/ha, effect in comparison to untreated controls): 0%; Post-emergence action against ZEAMX in % (crop plant compatibility) (Zea mays (ZEAMX)): 20%; Pre-emergence action against SETVI in % (Setaria viridis (SETVI) [22]; dosage 320 g/ha): 100%; Post-emergence action against ABUTH in % ([23]; 80 g/ha): 90%
CCOC(=O)COc1nn(-c2ccccn2)c(-c2ccc(F)nc2)c1Br [Example I-86]	100	100	100	100	100	100	90	100	100	100	90	90	100	80	100	100	100	100	100	100	Post-emergence action against AMARE in % ([1]; 320 g/ha, visual rating about 3 weeks after treatment): 90%; Post-emergence action against MATIN in % ([3]; dosage 320 g/ha): 80%; Post-emergence action against ALOMY in % ([5]; 320 g/ha): 100%; Post-emergence action against POLCO in % ([8]; dosage 320 g/ha): 90%; Pre-emergence action against ABUTH ([9]; 80 g/ha, scored visually after about 3 weeks vs untreated controls, 0% = like control plants): 80%; Post-emergence action against LOLRI in % (Lolium rigidum (LOLRI) [11]; dosage 320 g/ha): 100%; Post-emergence action against AVEFA in % (Avena fatua (AVEFA) [15]; 320 g/ha): 100%; Post-emergence action against VERPE in % ([16]; 320 g/ha, VERPE): 80%; Post-emergence action against SETVI in % (Setaria viridis (SETVI) [19]; dosage 320 g/ha): 100%; Post-emergence action against VIOTR in % (Viola tricolor (VIOTR) [24]; 80 g/ha): 80%; Post-emergence action against VIOTR in % (Viola tricolor (VIOTR) [24]; 320 g/ha): 90%; Pre-emergence action against ECHCG in % ([20]; dosage 80 g/ha): 100%; Post-emergence action against ECHCG in % ([21]; dosage 320 g/ha): 100%; Pre-emergence action against SETVI in % (Setaria viridis (SETVI) [22]; dosage 320 g/ha): 100%; Post-emergence action against ABUTH in % ([23]; 80 g/ha): 90%; Post-emergence action against ABUTH in % ([23]; 320 g/ha): 90%
